The record followed here is US20260159481A1, “INDOLE DERIVATIVE WITH SUBSTITUENT AND PHARMACEUTICAL USE” (MITOIMMUNE THERAPEUTICS INC., priority 2023, published 2026).

Some results are limits rather than exact numbers.

Assay type in all cases: cell-based
The test system of assay [1] is hippocampal neurons (HT-22). Put plainly: Protective effect against cell death due to RSL3 (LDH release), HT-22. As to conditions: RSL3 0.3 μM, 24 hours. As to the method: (§1) To confirm cell death protection effects on cardiac cells, adrenal medullary cells, renal fibroblasts, retinal epithelial cells, lung epithelial cells, renal proximal tubular epithelial cells, hippocampal neurons and fibroblasts, each type of cells were seeded at 4×10^3 to 1.2×10^4 cells/well in a 96-well plate and cultured for 18 to 24 hours. The example compounds were diluted to have the final concentration of 0.001, 0.003, 0.01, 0.3, 1, 3, and 10 μM, respectively, and then added to different wells and cultured for 15 to 20 minutes. […] To confirm the cell death protection effect of the example compounds, the degree of extracellular secretion of lactate dehydrogenase (LDH) was measured using a cytotoxicity LDH assay kit [Dojindo; CK12]. Briefly, at the end of 24-hour treatment of each type of cells with RSL3, 70 μL of the supernatant was taken from the 96-well plate where the cells were cultured and transferred to a new 96-well plate. The assay buffer included in the kit was added at 70 μL/well (equal to that of the sample) and the plate was covered with foil to block light and allowed to react for 15 to 20 minutes at room temperature. While observing a color change of the sample, 35 µL/well of a stop solution was added, an absorbance at 490 nm was measured using an iD3 spectrophotometer, and an EC50 value was calculated.

For assay [2], the system named is MLE-12 cells. Put plainly: Inhibitory effect on intracellular accumulation of ferrous ions (FerroOrange) under RSL3. As to conditions: 1 μM RSL3, 8 hours, FIG. 5. As to the method:
To confirm the inhibitory effect on intracellular accumulation of ferrous ions in lung epithelial cells, MILE-12 cells were seeded at 2×10^5 cells/well in a 12-well plate and cultured for 18 to 24 hours. Example Compound 29 and Fer-1 were diluted to have the final concentration of 0.01, 0.1, 1, and 10 μM and added to each well, and the cells were cultured for 10 minutes. Afterward, RSL3 was treated to have the final concentration of 1 M, and the cells were cultured for 8 hours. To confirm the inhibitory effect on intracellular accumulation of ferrous ions, FerroOrange (DOJINDO; F374) was used. According to the manufacturer's protocol, FerroOrange was diluted in the culture broth to have the final concentration of 1 M and added, and fluorescence staining was performed after a 30-minute reaction. The MLE-12 cells that were fluorescence-stained with FerroOrange were detached from the 12-well plate using 0.25% trypsin-EDTA and transferred to a microtube. Fluorescence (Ex/Em=580 nm/[…]) was measured using BD FACSLyric™, and the relative change compared to the control (RSL3-untreated group) was calculated.

Assay [3] concerns lung epithelial cells (MLE-12). Put plainly: Protective effect against cell death due to RSL3 (LDH release), MLE-12. Conditions: 24 hours. Here is the method: as §1
For orientation: Release of lactate dehydrogenase indicates damage to the cell membrane.

Assay [4] concerns adrenal medullary cells (PC-12). The experiment in a line: Protective effect against cell death due to RSL3 (LDH release), PC-12. As to conditions: RSL3 0.3 μM, 24 hours. Here is the method:
as §1

In assay [5] the test system is MLE-12 cells. The experiment in a line: Inhibitory effect on cytosolic ROS (CM-H2DCFDA) under RSL3. As to conditions: 1 μM RSL3, 2 hours, compound 0.01, 0.1, 1 μM, FIG. 3. As to the method:
To confirm the protective effect against cyto-ROS in lung epithelial cells, MLE-12 cells were seeded at 2×10^5 cells/well in a 12-well plate, and cultured for 18 to 24 hours. Example Compound 29 and Fer-1 were diluted to have the final concentration of 0.01, 0.1, and 1 μM and added to each well, and the cells were cultured for 10 minutes. Afterward, RSL3 was treated to have the final concentration of 1 M, and the cells were cultured for 2 hours. To confirm the inhibitory effect on cyto-ROS, the general oxidative stress indicator CM-H2DCFDA (Invitrogen™; C6827) was used. According to the manufacturer's protocol, CM-H2DCFDA was diluted in the culture broth to have the final concentration of 5 μM, and fluorescence staining was performed after a 30-minute reaction. The MLE-12 cells that were fluorescence-stained with CM-H2DCFDA were detached from the 12-well plate using 0.25% trypsin-EDTA and transferred to a microtube. Fluorescence (Ex/Em=492˜495 nm/517-527 nm) was measured using BD FACSLyric™, and the relative change compared to the control (RSL3-untreated group) was calculated.

Assay [6] relates to cardiac cells (H9C2). The experiment in a line: Protective effect against t-BHP-induced cell death in cardiac cells (LDH release). As to conditions: Rattus norvegicus, t-BHP 400 PM, 2 hours, read-out: EC50, protective effect against cell death due to t-BHP induction. Put shortly: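 H9C2 cells were pretreated 15–20 min with compound at final 0.001–30 PM (so in the source), then exposed to t-BHP at final 400 PM for 2 h. LDH released into supernatant was measured colorimetrically at 490 nm after 15 min room-temperature reaction, and EC50 derived.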

With `OCCOCCOCc1cc(NC2CCOCC2)c2[nH]c(-c3ccccc3)cc2c1` [Example 29, 2-(2-((2-phenyl-7-((tetrahydro-2H-pyran-4-yl)amino)-1H-indol-5-yl)methoxy)ethoxy)ethan-1-ol], the EC50 (commonly the concentration needed to bring the measured effect to its halfway point) in assay [1] (Mus musculus) is no more than 100 nM; in assay [3] (MLE12, RSL3 1 μM) it was no more than 100 nM; in assay [4] (Rattus norvegicus), 100 to 1000 nM; in assay [6], no more than 300 nM. For the same compound, the “intracellular ferrous ions increased by RSL3 treatment” value in assay [2] was “significantly decreased at 0.1 and 1 μM”. Further, the “cyto-ROS increased by RSL3 treatment” value in assay [5] was “significantly reduced lipid ROS levels at 0.1 and 1 μM”.

`CCOC(=O)c1ccc(NC2CCCCC2)c(N)c1` [Fer-1, ferrostatin-1, reference compound]: the EC50 was 100 to 1000 nM in assay [1], 100 to 1000 nM in assay [3] (RSL3 1 μM) and no more than 100 nM in assay [4]. Further, the “intracellular ferrous ions increased by RSL3 treatment” value in assay [2] was “significantly decreased at 0.1 and 1 μM”. In addition, in assay [5], the “cyto-ROS increased by RSL3 treatment” value was “significantly reduced lipid ROS levels at 0.01, 0.1 and 1 μM”.
